Source: US20080076786A1, “USE OF RADICAL-SCAVENGING COMPOUNDS FOR TREATMENT AND PREVENTION OF NO-DEPENDENT MICROCIRCULATION DISORDERS” (priority 2001, published 2008)

Columns and labels:
[1] = tested on: reoccurrence of myocardial infarcts (MI); settings: chronic application, published meta analysis; cited from earlier work
NO Synthetase = NO Synthetase knock-out mice, NO synthetase activity blocked or partially inhibited; format: in vivo; settings: NO Synthetase activity blocked or reduced; compared with pravastatin on elevating NO production
stroke risk = settings: ESPS-2, compared with low-dose aspirin / aspirin alone; cited from earlier work
[2] = tested on: oxygen radicals and proteinuria; settings: experimental animals with aminonucleoside nephropathy; cited from earlier work
lipid peroxidation = settings: human nonneoplastic lung tissue; cited from earlier work

Structure (SMILES) | reduction of the incidence of reoccurrence of myocardial infarcts [1] [%] | effect of NO sparing (preventing NO destruction) (NO Synthetase) | reduction of stroke risk (stroke risk) | oxygen radicals and proteinuria [2] | lipid peroxidation (lipid peroxidation)
CC(=O)Oc1ccccc1C(=O)O [Aspirin, acetyl salicylic acid] | 18 |  |  |  | 
OCCN(CCO)c1nc(N2CCCCC2)c2nc(N(CCO)CCO)nc(N3CCCCC3)c2n1 [Dipyridamole, 2,6-bis(diethanolamino)-4,8-dipiperidino-pyrimido[5,4-d]pyrimidine] |  | seen as independent effect | as effective as low-dose aspirin | suppress oxygen radicals and proteinuria | Inhibition of lipid peroxidation
